Assays:
[1] = Animal body weight and general observations, Ba/F3 ETV6-NTRK3-G623R tumor-bearing nude mice
Description: The mice in groups were intragastrically administrated on the next day, and the animal body weight and the long and short diameters of the tumor were measured once every other day.

Ba/F3 ETV6-NTRK3 cells = assay: Efficacy test in animals: subcutaneous xenograft, intragastric administration; type: in vivo, nude mice; conditions: for TGI (tumor growth inhibition rate): day of dissection; for Tumor inhibition rate (by tumor weight) / Tumor weight: end of the test
Description: (§1) Cells in the logarithmic growth phase were collected and resuspended in serum-free medium to a cell concentration of 2-4×10^7 cells/mL. An equal volume of matrigel was added to the cell suspension to achieve a final cell concentration of 1-2×10^7 cells/mL. 0.2 mL of tumor cell suspension was subcutaneously inoculated at the scapula of each nude mouse with the inoculation amount of 2-4×10^6 cells/mouse to prepare the animal models.

[2] = tested on: Ba/F3 ETV6-NTRK3-G623R cells; assay: as above; type: in vivo, nude mice; conditions: for TGI (tumor growth inhibition rate): day of dissection; for Tumor inhibition rate (by tumor weight) / Tumor weight: end of the test
Description: as §1

BaF3 ETV6-NTRK3-G623R = target: T1, BaF3 ETV6-NTRK3-G623R (Homo sapiens, UniProt Q16288, G623R, cells depend on it); assay: Inhibitory activity against cell proliferation (CellTiter-Glo, 72 hours); type: cell-based; conditions: read-out: Half maximal inhibitory concentration IC50 of cells, BaF3 ETV6-NTRK3-G623R
T1 construct: fused on or other part: N-terminal part of ETV6 (TEL) as fusion partner (part of the key); P41212 (Transcription factor ETV6)
In short: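 Ba/F3 stable fusion lines were seeded at 5000 cells/well (viability >90% by trypan blue) and allowed to settle overnight at 37 °C, 5% CO2. Compounds were then added as a 9-point, 3-fold series from a 10-fold working solution with a top concentration of 10 μM, in triplicate. IC50 values came from nonlinear sigmoidal fits of luminescence.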

ALK = target: T2, ALK (Homo sapiens, UniProt Q9UM73); assay: Kinase inhibitory activity (33P-ATP, filtration-binding method, Reaction Biology Corp.); type: biochemical; conditions: read-out: Half maximal inhibitory concentration IC50 for kinases, ALK
T2 construct: purchased Reaction Biology Corp
In short: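 Radiometric kinase assay: enzyme-compound mixture preincubated 20 minutes at room temperature, then reaction started with ^33P-ATP and run 120 minutes at room temperature. Filtration-binding readout. Activity expressed relative to DMSO control; IC50 from fitted dose-response curves.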

T2 sequence (Q9UM73 19-1620): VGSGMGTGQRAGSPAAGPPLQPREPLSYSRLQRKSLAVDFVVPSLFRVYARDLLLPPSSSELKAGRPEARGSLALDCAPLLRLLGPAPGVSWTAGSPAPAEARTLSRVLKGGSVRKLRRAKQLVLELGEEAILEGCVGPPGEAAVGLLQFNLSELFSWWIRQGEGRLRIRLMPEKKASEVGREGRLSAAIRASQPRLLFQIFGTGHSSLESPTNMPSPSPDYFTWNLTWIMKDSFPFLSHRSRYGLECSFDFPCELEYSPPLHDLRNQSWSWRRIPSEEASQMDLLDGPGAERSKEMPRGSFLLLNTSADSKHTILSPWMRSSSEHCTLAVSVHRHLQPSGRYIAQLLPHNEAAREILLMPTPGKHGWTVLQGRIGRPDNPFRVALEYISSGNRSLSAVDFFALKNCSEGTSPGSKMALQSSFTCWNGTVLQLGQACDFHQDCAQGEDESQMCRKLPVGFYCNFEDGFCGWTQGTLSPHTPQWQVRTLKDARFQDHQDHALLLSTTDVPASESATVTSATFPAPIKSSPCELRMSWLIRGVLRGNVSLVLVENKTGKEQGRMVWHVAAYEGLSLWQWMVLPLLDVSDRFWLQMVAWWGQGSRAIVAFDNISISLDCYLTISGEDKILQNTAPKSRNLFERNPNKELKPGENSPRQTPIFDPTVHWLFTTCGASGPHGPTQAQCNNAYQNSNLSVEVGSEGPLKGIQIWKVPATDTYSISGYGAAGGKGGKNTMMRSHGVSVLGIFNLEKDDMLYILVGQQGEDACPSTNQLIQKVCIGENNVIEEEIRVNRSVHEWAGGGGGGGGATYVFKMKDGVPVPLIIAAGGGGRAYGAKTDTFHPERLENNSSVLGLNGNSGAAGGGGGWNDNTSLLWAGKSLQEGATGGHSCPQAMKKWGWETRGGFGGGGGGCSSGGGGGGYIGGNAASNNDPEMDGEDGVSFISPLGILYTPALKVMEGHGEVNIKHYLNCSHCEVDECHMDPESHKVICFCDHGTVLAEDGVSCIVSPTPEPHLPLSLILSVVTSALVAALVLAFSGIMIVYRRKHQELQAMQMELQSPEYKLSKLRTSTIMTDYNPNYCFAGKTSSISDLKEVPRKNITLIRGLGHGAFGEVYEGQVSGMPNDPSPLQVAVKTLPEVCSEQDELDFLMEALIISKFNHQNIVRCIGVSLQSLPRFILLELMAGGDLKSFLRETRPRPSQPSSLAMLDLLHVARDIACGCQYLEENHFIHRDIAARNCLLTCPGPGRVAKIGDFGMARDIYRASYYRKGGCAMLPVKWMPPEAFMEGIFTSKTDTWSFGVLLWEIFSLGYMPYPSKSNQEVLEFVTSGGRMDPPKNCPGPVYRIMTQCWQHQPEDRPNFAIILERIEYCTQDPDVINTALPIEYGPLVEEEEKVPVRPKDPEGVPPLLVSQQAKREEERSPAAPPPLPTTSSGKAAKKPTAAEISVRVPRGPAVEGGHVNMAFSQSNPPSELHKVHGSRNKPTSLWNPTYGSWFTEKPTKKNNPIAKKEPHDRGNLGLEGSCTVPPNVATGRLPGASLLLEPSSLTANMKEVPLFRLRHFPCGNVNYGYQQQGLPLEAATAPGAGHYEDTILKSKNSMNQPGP
T1 sequence (Q16288 whole entry G623R, the tested form may be a part): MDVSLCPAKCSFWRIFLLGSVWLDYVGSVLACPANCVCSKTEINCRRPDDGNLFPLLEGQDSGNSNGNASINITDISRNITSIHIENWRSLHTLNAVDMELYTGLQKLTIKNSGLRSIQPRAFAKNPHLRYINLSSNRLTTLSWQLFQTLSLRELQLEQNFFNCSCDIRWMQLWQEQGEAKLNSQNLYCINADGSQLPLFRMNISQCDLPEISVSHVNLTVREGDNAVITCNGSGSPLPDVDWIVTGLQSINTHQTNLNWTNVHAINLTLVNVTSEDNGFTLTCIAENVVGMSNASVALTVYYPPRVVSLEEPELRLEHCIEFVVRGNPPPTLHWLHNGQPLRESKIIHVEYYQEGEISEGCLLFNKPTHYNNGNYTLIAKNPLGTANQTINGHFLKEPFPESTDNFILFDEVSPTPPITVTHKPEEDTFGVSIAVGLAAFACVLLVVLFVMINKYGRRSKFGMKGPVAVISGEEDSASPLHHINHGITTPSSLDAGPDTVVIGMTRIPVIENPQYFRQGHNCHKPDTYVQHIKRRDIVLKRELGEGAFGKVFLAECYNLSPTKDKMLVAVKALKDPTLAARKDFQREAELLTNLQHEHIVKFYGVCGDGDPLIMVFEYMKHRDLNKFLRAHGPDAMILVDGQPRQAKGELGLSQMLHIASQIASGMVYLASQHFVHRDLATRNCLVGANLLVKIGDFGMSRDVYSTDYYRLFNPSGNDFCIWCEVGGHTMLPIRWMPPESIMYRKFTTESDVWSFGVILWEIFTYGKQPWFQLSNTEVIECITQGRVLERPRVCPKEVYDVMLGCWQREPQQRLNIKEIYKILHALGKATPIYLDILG

Question: With `O=C(Nc1cnn2ccc(N3CCC[C@@H]3c3cc(F)ccc3F)nc12)N1CC[C@H](O)C1` [LOXO-101, larotrectinib, reference compound] as the compound, how does the “Rate of change in body weight (%) of day 11 to day 0” value ([1]; 60 mg/kg qd) read?
Answer: Its value is 6.8%.

Question: What about the Body weight ([1]; Day 0, 60 mg/kg qd) of the same compound?
Answer: Its Body weight is 23.9 ± 1.4 g.

Question: What about the Body weight ([1]; Day 3, 60 mg/kg qd) of the same compound?
Answer: The Body weight was 24.2 ± 1.8 g.

Question: What about the Body weight ([1]; Day 5, 60 mg/kg qd) of the same compound?
Answer: The Body weight was 24.1 ± 2.0 g.

Question: And the Body weight ([1]; Day 7, 60 mg/kg qd)?
Answer: The Body weight was 25.0 ± 2.2 g.

Question: And the Body weight ([1]; Day 9, 60 mg/kg qd)?
Answer: The Body weight was 25.3 ± 2.2 g.

Question: And the Body weight ([1]; Day 11, 60 mg/kg qd)?
Answer: The Body weight was 25.6 ± 2.4 g.

Question: And the Tumor volume (Ba/F3 ETV6-NTRK3 cells; Day 0, 60 mg/kg qd)?
Answer: Its Tumor volume is 303.89 ± 50.02 mm^3.

Question: And the Tumor volume (Ba/F3 ETV6-NTRK3 cells; Day 3, 60 mg/kg qd)?
Answer: Its Tumor volume is 510.07 ± 224.94 mm^3.

Question: And the Tumor volume (Ba/F3 ETV6-NTRK3 cells; Day 5, 60 mg/kg qd)?
Answer: The Tumor volume was 490.32 ± 170.06 mm^3.

Question: What about the Tumor volume (Ba/F3 ETV6-NTRK3 cells; Day 7, 60 mg/kg qd) of the same compound?
Answer: The Tumor volume was 731.42 ± 372.59 mm^3.

Question: What about the Tumor volume (Ba/F3 ETV6-NTRK3 cells; Day 9, 60 mg/kg qd) of the same compound?
Answer: Its Tumor volume is 1289.62 ± 757.75 mm^3.

Question: What about the Tumor volume (Ba/F3 ETV6-NTRK3 cells; Day 11, 60 mg/kg qd) of the same compound?
Answer: Its Tumor volume is 1361.88 ± 710.90 mm^3.

Question: What about the “TGI (tumor growth inhibition rate)” value (Ba/F3 ETV6-NTRK3 cells; 60 mg/kg qd) of the same compound?
Answer: The value was 63.87%.

Question: And the “Tumor inhibition rate (by tumor weight)” value (Ba/F3 ETV6-NTRK3 cells; 60 mg/kg qd)?
Answer: The value was 63.49%.

Question: And the Tumor weight (Ba/F3 ETV6-NTRK3 cells; 60 mg/kg qd)?
Answer: The Tumor weight was 0.64 ± 0.44 g.

Question: What about the Tumor volume ([2]; Day 0, 60 mg/kg qd) of the same compound?
Answer: The Tumor volume was 200.39 ± 31.65 mm^3.

Question: And the Tumor volume ([2]; Day 3, 60 mg/kg qd)?
Answer: The Tumor volume was 552.34 ± 219.25 mm^3.

Question: And the Tumor volume ([2]; Day 5, 60 mg/kg qd)?
Answer: The Tumor volume was 1025.59 ± 347.93 mm^3.

Question: What about the Tumor volume ([2]; Day 7, 60 mg/kg qd) of the same compound?
Answer: Its Tumor volume is 1349.08 ± 541.06 mm^3.

Question: What about the Tumor volume ([2]; Day 9, 60 mg/kg qd) of the same compound?
Answer: Its Tumor volume is 1822.21 ± 755.31 mm^3.

Question: What about the Tumor volume ([2]; Day 11, 60 mg/kg qd) of the same compound?
Answer: Its Tumor volume is 2375.84 ± 852.18 mm^3.

Question: And the “TGI (tumor growth inhibition rate)” value ([2]; 60 mg/kg qd)?
Answer: Its value is 31.65%.

Question: What about the “Tumor inhibition rate (by tumor weight)” value ([2]; 60 mg/kg qd) of the same compound?
Answer: Its value is 25.27%.

Question: And the Tumor weight ([2]; 60 mg/kg qd)?
Answer: Its Tumor weight is 1.28 ± 0.62 g.

Question: And the GI50 (BaF3 ETV6-NTRK3-G623R)?
Answer: The GI50 was 394 nM.

Question: And the IC50 (ALK)?
Answer: Its IC50 is over 1000 nM.

Question: For `C[C@@H]1CCc2ncc(F)cc2[C@H]2CCCN2c2ccn3ncc(c3n2)C(=O)N1` [LOXO-195, reference compound], which “Rate of change in body weight (%) of day 11 to day 0” value ([1]; 100 mg/kg bid) is on record?
Answer: Its value is 2.1%.

Question: And the General observations ([1]; 100 mg/kg bid, the 1# animal, possibly associated with the administration operation)?
Answer: Its General observations is “developed thorax congestion at D8 and died at D10”.

Question: What about the Body weight ([1]; Day 0, 100 mg/kg bid) of the same compound?
Answer: Its Body weight is 23.5 ± 1.2 g.

Question: What about the Body weight ([1]; Day 3, 100 mg/kg bid) of the same compound?
Answer: Its Body weight is 24.4 ± 1.1 g.

Question: What about the Body weight ([1]; Day 5, 100 mg/kg bid) of the same compound?
Answer: The Body weight was 24.4 ± 0.9 g.

Question: What about the Body weight ([1]; Day 7, 100 mg/kg bid) of the same compound?
Answer: The Body weight was 24.6 ± 0.9 g.

Question: And the Body weight ([1]; Day 9, 100 mg/kg bid)?
Answer: The Body weight was 24.4 ± 1.2 g.

Question: What about the Body weight ([1]; Day 11, 100 mg/kg bid) of the same compound?
Answer: The Body weight was 24.0 ± 1.7 g.

Question: And the Tumor volume (Ba/F3 ETV6-NTRK3 cells; Day 0, 100 mg/kg bid)?
Answer: Its Tumor volume is 303.85 ± 42.83 mm^3.

Question: And the Tumor volume (Ba/F3 ETV6-NTRK3 cells; Day 3, 100 mg/kg bid)?
Answer: Its Tumor volume is 351.06 ± 144.65 mm^3.

Question: And the Tumor volume (Ba/F3 ETV6-NTRK3 cells; Day 5, 100 mg/kg bid)?
Answer: Its Tumor volume is 216.92 ± 62.19 mm^3.

Question: And the Tumor volume (Ba/F3 ETV6-NTRK3 cells; Day 7, 100 mg/kg bid)?
Answer: Its Tumor volume is 174.13 ± 102.49 mm^3.

Question: And the Tumor volume (Ba/F3 ETV6-NTRK3 cells; Day 9, 100 mg/kg bid)?
Answer: The Tumor volume was 206.69 ± 107.53 mm^3.

Question: And the Tumor volume (Ba/F3 ETV6-NTRK3 cells; Day 11, 100 mg/kg bid)?
Answer: Its Tumor volume is 196.07 ± 88.87 mm^3.

Question: What about the “TGI (tumor growth inhibition rate)” value (Ba/F3 ETV6-NTRK3 cells; 100 mg/kg bid) of the same compound?
Answer: The value was 94.80%.

Question: What about the “Tumor inhibition rate (by tumor weight)” value (Ba/F3 ETV6-NTRK3 cells; 100 mg/kg bid) of the same compound?
Answer: The value was 94.86%.

Question: And the Tumor weight (Ba/F3 ETV6-NTRK3 cells; 100 mg/kg bid)?
Answer: Its Tumor weight is 0.09 ± 0.07 g.

Question: And the Tumor volume ([2]; Day 0, 100 mg/kg bid)?
Answer: The Tumor volume was 200.27 ± 30.38 mm^3.

Question: And the Tumor volume ([2]; Day 3, 100 mg/kg bid)?
Answer: Its Tumor volume is 282.91 ± 82.61 mm^3.

Question: What about the Tumor volume ([2]; Day 5, 100 mg/kg bid) of the same compound?
Answer: The Tumor volume was 306.00 ± 115.66 mm^3.

Question: And the Tumor volume ([2]; Day 7, 100 mg/kg bid)?
Answer: Its Tumor volume is 364.50 ± 212.47 mm^3.

Question: And the Tumor volume ([2]; Day 9, 100 mg/kg bid)?
Answer: The Tumor volume was 334.53 ± 184.22 mm^3.

Question: What about the Tumor volume ([2]; Day 11, 100 mg/kg bid) of the same compound?
Answer: Its Tumor volume is 345.18 ± 306.01 mm^3.

Question: What about the “TGI (tumor growth inhibition rate)” value ([2]; 100 mg/kg bid) of the same compound?
Answer: The value was 90.07%.

Question: What about the “Tumor inhibition rate (by tumor weight)” value ([2]; 100 mg/kg bid) of the same compound?
Answer: The value was 91.50%.

Question: And the Tumor weight ([2]; 100 mg/kg bid)?
Answer: Its Tumor weight is 0.15 ± 0.14 g.

Question: What about the GI50 (BaF3 ETV6-NTRK3-G623R) of the same compound?
Answer: The GI50 was 2.7 nM.

Question: And the IC50 (ALK)?
Answer: The IC50 was 274 nM.

From patent publication US20210403485A1, “PYRAZOLOPYRIMIDINE DERIVATIVE AS SELECTIVE TRK INHIBITOR” (SHANDONG LUYE PHARMACEUTICAL CO., LTD., priority 2018, published 2021)
